What was measured:
[1] = Inhibition of bovine GGT1 transpeptidation using gamma-glutamyl-p-nitroanilide in presence of Gly-Gly; design: species or system Bos taurus
[2] = molecular target: T1, Glutathione hydrolase 1 proenzyme (Homo sapiens, UniProt P19440); assay: Inhibition of human GGT1 transpeptidation in Pichia pastoris using L-GpNA as substrate in presence of Gly-Gly
[3] = molecular target: T1, Glutathione hydrolase 1 proenzyme; assay: Inhibition of human GGT1 expressed in Pichia pastoris assessed as inhibition of GSH hydrolysis measured by L-glutamate release assay

T1 sequence (P19440 1-380 limits assumed): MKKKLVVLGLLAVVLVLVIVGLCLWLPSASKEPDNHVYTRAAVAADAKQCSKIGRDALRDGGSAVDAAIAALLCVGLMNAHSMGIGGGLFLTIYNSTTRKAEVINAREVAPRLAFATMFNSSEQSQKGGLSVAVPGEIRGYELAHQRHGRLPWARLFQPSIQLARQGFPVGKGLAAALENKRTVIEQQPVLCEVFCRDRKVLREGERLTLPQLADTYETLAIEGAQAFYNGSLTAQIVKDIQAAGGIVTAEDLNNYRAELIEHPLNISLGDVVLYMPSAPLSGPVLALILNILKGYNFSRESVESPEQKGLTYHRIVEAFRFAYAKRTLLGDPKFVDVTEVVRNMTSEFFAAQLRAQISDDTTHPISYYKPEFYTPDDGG
T1 sequence (P19440 381-569 limits assumed): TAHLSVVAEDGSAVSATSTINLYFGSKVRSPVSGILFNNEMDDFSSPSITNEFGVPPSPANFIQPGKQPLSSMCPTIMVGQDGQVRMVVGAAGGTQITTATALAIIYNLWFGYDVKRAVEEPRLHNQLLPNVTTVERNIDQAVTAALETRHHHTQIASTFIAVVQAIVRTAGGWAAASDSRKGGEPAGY

Row | SMILES | Ki [1] | Ki [2] | Ki [3]
1 | N[C@@H](CCB(O)O)C(=O)O | 0.017 µM | 0.0054 µM | 0.025 µM
2 | O=C(O)[C@@H](CCB(O)O)NCCCc1ccccc1 | – | 49 µM | 108 µM
3 | NCCN[C@H](CCB(O)O)C(=O)O | – | 46 µM | 260 µM
4 | C[C@@H](N)CN[C@H](CCB(O)O)C(=O)O | – | 254 µM | > 1000 µM
5 | O=C(O)[C@@H](CCB(O)O)NCc1ccc(S(=O)(=O)Nc2ccccc2)cc1 | – | 173 µM | –
6 | N[C@H](CN[C@H](CCB(O)O)C(=O)O)Cc1ccccc1 | – | 61 µM | –
7 | O=C(O)[C@@H](CCB(O)O)NCCc1ccccc1 | – | 220 µM | 356 µM
8 | COc1ccc(CN[C@H](CCB(O)O)C(=O)O)cc1 | – | 343 µM | –
9 | N[C@@H](CN[C@H](CCB(O)O)C(=O)O)Cc1ccccc1 | – | 88 µM | 508 µM
10 | O=C(O)c1cccc(CN[C@H](CCB(O)O)C(=O)O)c1 | – | 589 µM | –
11 | N[C@H](CCB(O)O)C(=O)O | – | 0.045 µM | 0.077 µM
12 | O=C(O)[C@@H](CCB(O)O)NCc1ccccc1 | – | 202 µM | 2150 µM
13 | O=C(O)[C@@H](CCB(O)O)NCc1c[nH]cn1 | – | 26 µM | 87 µM

— ChEMBL document CHEMBL5214972, “Design and evaluation of novel analogs of 2-amino-4-boronobutanoic acid (ABBA) as inhibitors of human gamma-glutamyl transpeptidase” (Bioorg Med Chem, 2022)
